These results are taken from patent US20140057915A1, “KINASE INHIBITORS” (TOPIVERT PHARMA LIMITED, priority 2012, published 2014).

As a reminder, the IC50 is the concentration that gives 50% inhibition.

Where only a bound is given, the exact number is not on record here.

One test deals with GSK3α (Homo sapiens, UniProt P49840). The experiment in a line: GSK 3α enzyme inhibition (FRET), Method 2. The format is biochemical. Conditions: Table 4a2, different laboratory.
The test system of the next test is IL-8 release, PBMCs. As to the kind of experiment: LPS-induced IL-8 release in PBMC cells. The format is cell-based. As to conditions: Homo sapiens, LPS stimulated, read-out: IC50 Values for Inhibition of Cytokine Release, PBMCs, IL-8. Here is the method:
(b) LPS-Induced TNFα/IL-8 Release in PBMC Cells
Peripheral blood mononuclear cells (PBMCs) from healthy subjects are separated from whole blood using a density gradient (Lymphoprep, Axis-Shield Healthcare). The PBMCs are seeded in 96 well plates and treated with compounds at the desired concentration for 2 hours before addition of 1 ng/ml LPS (Escherichia Coli 0111:B4 from Sigma Aldrich) for 24 hours under normal tissue culture conditions (37° C., 5% CO2). The supernatant is harvested for determination of […] concentrations by sandwich ELISA (Duo-set, R&D systems) and read on the fluorescence microplate reader (Varioskan® Flash, ThermoFisher Scientific).

For the next test, the target named is Syk (Homo sapiens, UniProt P43405). As to the kind of experiment: Syk enzyme inhibition (FRET). In kind it is biochemical. Conditions: Table 4a2, different laboratory. Summed up: (§1)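 Enzyme was preincubated with test compound (added as 4, 0.4, 0.04 or 0.004 μg/mL solutions) for 2 hr at RT. FRET peptide (8 μM solution) and ATP solution (800 μM for c-Src, 60 μM for Syk) were then added for 1 hr, followed by 1 hr protease development.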

Another test concerns the target cSrc (Homo sapiens, UniProt P12931). As to the kind of experiment: c-Src enzyme inhibition (FRET). The format is biochemical. Conditions: Table 4a2, different laboratory. In outline:
as §1

Sequence of GSK3α (P49840 whole entry): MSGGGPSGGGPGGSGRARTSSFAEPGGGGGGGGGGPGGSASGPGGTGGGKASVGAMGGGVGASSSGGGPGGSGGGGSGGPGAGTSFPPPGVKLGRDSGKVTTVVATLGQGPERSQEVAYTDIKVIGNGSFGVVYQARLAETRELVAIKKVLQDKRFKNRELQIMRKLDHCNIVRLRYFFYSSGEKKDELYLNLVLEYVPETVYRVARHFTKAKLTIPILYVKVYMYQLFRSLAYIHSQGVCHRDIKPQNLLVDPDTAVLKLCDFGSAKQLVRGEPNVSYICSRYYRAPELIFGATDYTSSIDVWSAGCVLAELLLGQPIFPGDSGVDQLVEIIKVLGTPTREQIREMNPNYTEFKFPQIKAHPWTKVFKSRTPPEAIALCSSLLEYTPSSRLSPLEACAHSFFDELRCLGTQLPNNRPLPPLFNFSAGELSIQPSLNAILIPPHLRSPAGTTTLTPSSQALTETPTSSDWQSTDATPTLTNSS
Sequence of cSrc (P12931 whole entry): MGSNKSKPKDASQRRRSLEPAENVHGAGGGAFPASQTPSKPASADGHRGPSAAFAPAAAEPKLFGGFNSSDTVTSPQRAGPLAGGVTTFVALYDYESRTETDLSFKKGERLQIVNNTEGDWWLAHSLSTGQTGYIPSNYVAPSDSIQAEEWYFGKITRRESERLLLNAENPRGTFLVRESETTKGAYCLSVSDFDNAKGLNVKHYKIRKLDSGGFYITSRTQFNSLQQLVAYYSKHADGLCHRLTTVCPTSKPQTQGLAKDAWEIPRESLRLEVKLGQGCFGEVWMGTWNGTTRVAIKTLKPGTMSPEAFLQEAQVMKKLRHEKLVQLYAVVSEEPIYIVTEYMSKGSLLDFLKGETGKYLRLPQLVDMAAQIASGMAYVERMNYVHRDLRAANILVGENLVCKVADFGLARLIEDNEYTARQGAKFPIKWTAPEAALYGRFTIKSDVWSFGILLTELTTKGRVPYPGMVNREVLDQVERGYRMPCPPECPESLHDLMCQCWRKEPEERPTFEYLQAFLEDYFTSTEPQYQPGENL

Consider `C#Cc1cc(Nc2nccc(Oc3ccc(NC(=O)Nc4cc(C(C)C)nn4-c4ccc(C)cc4)c(Cl)c3Cl)n2)cc(C(=O)NCCN2CCOCC2)c1` [Example 87, 3-((4-(2,3-Dichloro-4-(3-(3-isopropyl-1-(p-tolyl)-1H-pyrazol-5-yl)ureido)-phenoxy)pyrimidin-2-yl)amino)-5-ethynyl-N-(2-morpholinoethyl)benzamide], for which the IC50 on GSK3α came out at 5840 nM; in the test with IL-8 release, PBMCs, 9.4 nM; on Syk it was 27 nM; at cSrc, 22 nM.
Regarding `C#Cc1cc(Nc2nccc(Oc3ccc(NC(=O)Nc4cc(C(C)C)nn4-c4ccc(C)cc4)c(F)c3F)n2)cc(C(=O)NCCN2CCOCC2)c1` [Example 88, 3-((4-(2,3-Difluoro-4-(3-(3-isopropyl-1-(p-tolyl)-1H-pyrazol-5-yl)ureido)-phenoxy)pyrimidin-2-yl)amino)-5-ethynyl-N-(2-morpholinoethyl)benzamide], the IC50 amounted to 172 nM at GSK3α and 13.1 nM in the test on IL-8 release, PBMCs.
The matching figures for `C#Cc1cc(Nc2nccc(Oc3ccc(NC(=O)Nc4cc(C(C)C)nn4-c4ccc(C)cc4)c(Cl)c3Cl)n2)cc(C(N)=O)c1` [Example 89, 3-((4-(2,3-Dichloro-4-(3-(3-isopropyl-1-(p-tolyl)-1H-pyrazol-5-yl)ureido)-phenoxy)pyrimidin-2-yl)amino)-5-ethynylbenzamide]: no less than 15300 nM and 14.6 nM.
Turning to `C#Cc1cc(Nc2nccc(Oc3ccc(NC(=O)Nc4cc(C(C)C)nn4-c4ccc(C)cc4)c(Cl)c3Cl)n2)cc(C(=O)NCCN(C)C)c1` [Example 90, 3-((4-(2,3-Dichloro-4-(3-(3-isopropyl-1-(p-tolyl)-1H-pyrazol-5-yl)ureido)-phenoxy)pyrimidin-2-yl)amino)-N-(2-(dimethylamino)ethyl)-5-ethynylbenzamide], the half-maximal inhibitory concentration (IC50) against GSK3α is 154 nM; in the test with IL-8 release, PBMCs it was 7.8 nM.
